Test results from patent US20220313650A1, “METHODS FOR TREATING NEURODEVELOPMENTAL DISORDERS” (The Broad Institute, Inc., priority 2019, published 2022).
Entries after “also recorded” stand apart in the source; their conditions may differ.

System: Ptchd1 KO mice
Experiment: Auditory GO/NO GO noise filtering test, Ptchd1 KO mice
Type: in vivo
Details: LY379268 5 mg/kg i.p.
Procedure: Behavioral Training and Testing was conducted. In brief, behavioral training and testing took place in grid-floor mounted, custom-built enclosures made of acrylic plastic (dimensions in cm: length: 15.2; width: 12.7; height: 24). All enclosures contained custom-designed operant ports, each of which was equipped with an IR LED/IR phototransistor pair (Digikey, Thief River Falls, Minn.) for nose-poke detection. Trial initiation was achieved through an initiation port mounted on the grid floor 6 cm away from the ‘response ports’ located at the front of the chamber. A pair of electrostatic speakers (Tucker Davis Technologies) producing the auditory stimuli were placed outside of the training apparatus and sound stimuli were conveyed via cylindrical tubes to apertures located at either side of the initiation port, allowing delivery of stereotypical stimuli across trials. All stimuli across tasks were generated by a TDT Rx8 sound system (Tucker-Davis Technologies, Alachua, Fla.). Sound stimuli were recorded and assessed for intensity using a prepolarized icp array microphone (PCB Piezotronics, Depew, N.Y.) after which frequency production was equalized using a software-based calibration via SigCalRP (Tucker-Davis Technologies, Alachua Fla.). […]
The sequence of “NO GO” stimuli followed a pre-determined pseudorandomized sequence which was shifted across testing sessions. […]

## N[C@@]1(C(=O)O)COC2C(C(=O)O)C21 (stereo in doubt) [LY379268, (1R,4R,5S,6R)-4-Amino-2-oxabicyclo[3.1.0] hexane-4,6-dicarboxylic acid]
  percentage of correct responses, auditory stimuli embedded with noise: fully rescued noise filtering deficits in the Ptchd1 KO to control level; also recorded: rescued to control levels
